According to patent US9822414B2, “In vitro method for predicting in vivo genotoxicity of chemical compounds” (priority 2011, dated 2017):
Values joined by “and” are separate entries in the source; they are usually repeats but may differ in a detail not shown here. Identical values can stand only once. “Also recorded” adds a separate entry of the source. Like-named read-outs stand apart in the source and are kept apart here.

Assays:
NR0B2 = test: Gene expression of NR0B2 in HepG2 cells exposed to compound (microarray, log2 treatment:control ratio); type: cell-based, human
PWWP2B = test: Gene expression of PWWP2B in HepG2 cells exposed to compound (microarray, log2 treatment:control ratio); type: cell-based, human
LOC100505880 = test: Gene expression of LOC100131914/LOC100505880 in HepG2 cells exposed to compound (microarray, log2 treatment:control ratio); type: cell-based, human
HepG2 cell [1] = tested on: HepG2 cell
Salmonella typhimurium = conditions: cited from earlier work
rodents = conditions: cited from earlier work
[2] = tested on: conventional in vitro genotoxicity assays; conditions: cited from earlier work
HepG2 cell [3] = test: Class prediction of in vivo genotoxicity by the method of the invention (Ames stratification plus three-gene expression in HepG2); conditions: 62 compounds, three replicates, HepG2 24 h
[4] = positive when at least one in vivo assay (MN, CA) positive, equivocal considered positive
[5] = HepG2, Ames positive compounds, per replicate, reference value −0.099
[6] = HepG2 cells, 24 h exposure, Ames positive compounds, one line per replicate of triplicate experiments
[7] = HepG2, Ames positive compounds, per replicate, reference value −0.071
[8] = HepG2, Ames positive compounds, per replicate, reference value −0.054
[9] = HepG2 cells, 24 h exposure, Ames positive compounds, one line per replicate of triplicate experiments, listed as Fu

Structure (SMILES)	NR0B2 above or below the reference value (NR0B2)	Log2 treatment: control ratio PWWP2B (PWWP2B)	LOC100505880 above or below the reference value (LOC100505880)	At least ⅔ genes +? (HepG2 cell [1])	Average result over three measurements (HepG2 cell [1])	Ames (Salmonella typhimurium)	Standard (in vivo genotoxicity designation) (rodents; in vivo)	In vitro GTX [2]	Prediction (class prediction results using the method of the invention) (HepG2 cell [3])	PWWP2B above or below the reference value (PWWP2B)	In vivo GTX (rodents; [4])	Prediction (class prediction results using the method of the invention) (HepG2 cell [1])	In vivo GTX (rodents; in vivo)	also measured
ClCc1ccccn1 [2CMP]	− (minus sign indicates a value below the reference value)	−0.214 and −0.23 and −0.031	− (minus sign indicates a value below the reference value)	NGTX	NGTX	+	NGTX	+	NGTX					
CC(=O)Nc1cccc2c1-c1ccccc1C2 [4AAF]			− (minus sign indicates a value below the reference value)		NGTX	+	NGTX	+	NGTX+					Log2 treatment: control ratio NR0B2 (NR0B2): −0.04 and −0.278 and −0.088; Log2 treatment: control ratio LOC100505880 (LOC100505880): −0.217 and −0.295 and −0.101
Nc1ccc(-c2ccccc2)cc1 [ABP]	+ (Plus sign indicates a value above the reference value)									+ (Plus sign indicates a value above the reference value)	+			
Cn1cnc([N+](=O)[O-])c1Sc1ncnc2nc[nH]c12 [AZA]				GTX	GTX		GTX	+				GTX	+	NR0B2 above or below the reference value (NR0B2; [5]): + (Plus sign indicates a value above the reference value); Log2 treatment: control ratio NR0B2 (NR0B2; [6]): 1.473 and 0.232 and 0.893; PWWP2B above or below the reference value (PWWP2B; [7]): + (Plus sign indicates a value above the reference value); Log2 treatment: control ratio PWWP2B (PWWP2B; [6]): 0.536 and 0.044 and −0.035; LOC100505880 above or below the reference value (LOC100505880; [8]): + (Plus sign indicates a value above the reference value); Log2 treatment: control ratio LOC100505880 (LOC100505880; [6]): 1.541 and 0.022 and 1.33; Ames (Salmonella typhimurium; Ames results based on NTP data): +
Nc1ccc(-c2ccc(N)cc2)cc1 [BZ]	+ (key: +: Plus sign indicates a value above the reference value; −: minus sign indicates a value below the reference value)			GTX	GTX	+	GTX	+				GTX	+	
O=P1(N(CCCl)CCCl)NCCCO1 (stereo not drawn) [CP]		0.042 and −0.221 and 0.073	+ (Plus sign indicates a value above the reference value)	GTX	GTX	+	GTX	+	GTX		+			Log2 treatment: control ratio LOC100505880 (LOC100505880): −0.031 and −0.01 and 0.139
O=C(O)CCCc1ccc(N(CCCl)CCCl)cc1 [Cb]	+ (Plus sign indicates a value above the reference value)		+ (Plus sign indicates a value above the reference value)	GTX	GTX	+	GTX	+	GTX		+			
CCN(N=O)C(N)=O [ENU]	+ (Plus sign indicates a value above the reference value)	0.01 and 0.06 and 0.11		GTX	GTX	+	GTX	+	GTX	+ (Plus sign indicates a value above the reference value)	+			
O=c1[nH]cc(F)c(=O)[nH]1 [FU]					NGTX		GTX	+				NGTX+	+	NR0B2 above or below the reference value (NR0B2; [5]): + (Plus sign indicates a value above the reference value); also recorded: − (minus sign indicates a value below the reference value); NR0B2 above or below the reference value (NR0B2; HepG2, Ames positive compounds, per replicate, reference value −0.099, listed as Fu): − (minus sign indicates a value below the reference value); Log2 treatment: control ratio NR0B2 (NR0B2; [6]): 0.781 and −0.197; Log2 treatment: control ratio NR0B2 (NR0B2; [9]): −0.457; PWWP2B above or below the reference value (PWWP2B; [7]): + (Plus sign indicates a value above the reference value); Log2 treatment: control ratio PWWP2B (PWWP2B; [6]): 0.256 and 0.175; Log2 treatment: control ratio PWWP2B (PWWP2B; [9]): 0.008; LOC100505880 above or below the reference value (LOC100505880; [8]): + (Plus sign indicates a value above the reference value); also recorded: − (minus sign indicates a value below the reference value); LOC100505880 above or below the reference value (LOC100505880; HepG2, Ames positive compounds, per replicate, reference value −0.054, listed as Fu): − (minus sign indicates a value below the reference value); Log2 treatment: control ratio LOC100505880 (LOC100505880; [6]): 0.583 and −0.067; Log2 treatment: control ratio LOC100505880 (LOC100505880; [9]): −0.218; Ames (Salmonella typhimurium; Ames results based on NTP data): +
Cn1c(N)nc2c3cccnc3ccc21 [IQ]		0.188 and −0.003 and −0.052	+ (Plus sign indicates a value above the reference value)	GTX	GTX	+	GTX	+	GTX	+ (Plus sign indicates a value above the reference value)	+			
Nc1ccc(Cc2ccc(N)c(Cl)c2)cc1Cl [MOCA]	+ (Plus sign indicates a value above the reference value)						GTX	+		+ (Plus sign indicates a value above the reference value)	+			
O=c1c(O)c(-c2ccc(O)c(O)c2)oc2cc(O)cc(O)c12 [Que]				NGTX	NGTX		NGTX	+				NGTX	−	NR0B2 above or below the reference value (NR0B2; [5]): − (minus sign indicates a value below the reference value); Log2 treatment: control ratio NR0B2 (NR0B2; [6]): −0.635 and −0.69 and −3.709; PWWP2B above or below the reference value (PWWP2B; [7]): − (minus sign indicates a value below the reference value); Log2 treatment: control ratio PWWP2B (PWWP2B; [6]): −0.206 and −0.437 and −0.113; Log2 treatment: control ratio LOC100505880 (LOC100505880; [6]): 0.062 and −0.337 and −0.727; Ames (Salmonella typhimurium; Ames results based on NTP data): +
COc1ccc(C)cc1N [pCres]	+ (Plus sign indicates a value above the reference value)			GTX	GTX	+	GTX	+	GTX	+ (Plus sign indicates a value above the reference value)	+			
